According to ChEMBL document CHEMBL3608291, “Chemical constituents of Miliusa balansae leaves and inhibition of nitric oxide production in lipopolysaccharide-induced RAW 264.7 cells” (Bioorg Med Chem Lett, 2015):
Active and inactive are the calls of the source. The rule behind the calls is not given here.

Columns and labels:
RAW264.7 [1] = experiment: Cytotoxicity against mouse RAW264.7 cells assessed as reduction in cell viability at 10 to 40 uM by MTT assay; type: cell-based; conditions: raw264.7, 40 µM
RAW264.7 [2] = experiment: Anti-inflammatory activity in LPS-stimulated mouse RAW264.7 cells assessed as inhibition of nitric oxide production at 40 uM by Griess reaction based ELISA method; type: functional
RAW264.7 [3] = experiment: Anti-inflammatory activity in LPS-stimulated mouse RAW264.7 cells assessed as inhibition of nitric oxide production at 10 uM by Griess reaction based ELISA method; type: functional, cell-based
RAW264.7 [4] = experiment: Anti-inflammatory activity in LPS-stimulated mouse RAW264.7 cells assessed as inhibition of nitric oxide production at 20 uM by Griess reaction based ELISA method; type: functional
RAW264.7 [5] = experiment: Anti-inflammatory activity in LPS-stimulated mouse RAW264.7 cells assessed as inhibition of nitric oxide production at 10 to 40 uM by Griess reaction based ELISA method; type: functional

| SMILES | Activity (RAW264.7 [1]) | inhibition (RAW264.7 [2]) | inhibition (RAW264.7 [3]) | inhibition (RAW264.7 [4]) | inhibition at 40 µM (RAW264.7 [2]) | inhibition at 20 µM (RAW264.7 [4]) | inhibition (INH) (RAW264.7 [5]) |
| --- | --- | --- | --- | --- | --- | --- | --- |
| C[C@H](CC[C@H]1[C@H](C)CC(=O)CC1(C)C)O[C@@H]1O[C@H](CO)[C@@H](O)[C@H](O)[C@H]1O | Non-toxic | inactive | inactive | inactive |  |  |  |
| COc1cc([C@H](O)[C@@H](O)CO)cc(OC)c1O (relative stereo) | Non-toxic | inactive | inactive | inactive |  |  |  |
| Oc1cc(O)c2c(c1)O[C@H](c1ccc(O)c(O)c1)[C@H](O)C2 [(-)-EPICATECHIN] | Non-toxic |  | Active | Active | 91.8% |  |  |
| CC(=O)/C=C/[C@@]12O[C@@H](C[C@]1(C)O[C@@H]1O[C@H](CO[C@@H]3OC[C@](O)(CO)[C@H]3O)[C@@H](O)[C@H](O)[C@H]1O)[C@H](O)C2(C)C | Non-toxic |  |  |  |  | 90.9% |  |
| CC1=C2C[C@@H]3[C@@](C)(C[C@]2(O)OC1=O)[C@H](O)CC[C@]3(C)O | Non-toxic | inactive | inactive | inactive |  |  |  |
| COc1cc([C@H](O)[C@H](O)CO)cc(OC)c1O (relative stereo) | Non-toxic | inactive | inactive | inactive |  |  |  |
| C[C@H](/C=C/[C@@]1(O)[C@H](C)CC(=O)CC1(C)C)O[C@@H]1O[C@H](CO)[C@@H](O)[C@H](O)[C@H]1O | Non-toxic | inactive | inactive | inactive |  |  |  |
| O=C1/C(=C/c2ccc(O)c(O)c2)Oc2cc(O)ccc21 [SULFURETIN] |  |  |  |  |  | 81.3% |  |
| CC1=C2C[C@@H]3[C@@](C)(C[C@]2(O)OC1=O)[C@H](O)CC[C@@]3(C)O [CHLORAEUDOLIDE] | Non-toxic | inactive | inactive | inactive |  |  |  |
| COc1cc([C@H](O)[C@H](CO)O[C@@H]2O[C@H](CO)[C@@H](O)[C@H](O)[C@H]2O)ccc1O | Non-toxic |  |  |  |  | 91.5% | 98% |
| COc1cc([C@H](O)[C@@H](O)CO)ccc1O (relative stereo) | Non-toxic | inactive | inactive | inactive |  |  | 48.4% |
| C[C@H](CC[C@H]1[C@H](C)C[C@H](O)CC1(C)C)O[C@@H]1O[C@H](CO)[C@@H](O)[C@H](O)[C@H]1O | Non-toxic |  | Active | Active | 82% |  |  |
| CC(C)CC(=O)c1c(O)cc(O)cc1O[C@@H]1O[C@H](CO)[C@@H](O)[C@H](O)[C@H]1O | Non-toxic | inactive | inactive | inactive |  |  |  |
| C[C@@H]1O[C@@H](OC[C@H]2O[C@@H](Oc3c(-c4ccc(O)c(O)c4)oc4cc(O)cc(O)c4c3=O)[C@H](O)[C@@H](O)[C@@H]2O)[C@H](O)[C@H](O)[C@H]1O [RUTIN] | Non-toxic | inactive | inactive | inactive |  |  |  |
| COc1cc([C@H](O)[C@H](O)CO)ccc1O (relative stereo) | Non-toxic | inactive | inactive | inactive |  |  | 48.4% |
| CC/C=C\CCO[C@@H]1O[C@H](CO)[C@@H](O)[C@H](O)[C@H]1O | Non-toxic |  |  |  |  | 91.8% |  |
| CC(=O)/C=C/[C@@]12O[C@@H](CC1(C)C)C[C@@]2(C)O[C@@H]1O[C@H](CO)[C@@H](O)[C@H](O)[C@H]1O | Non-toxic |  |  |  |  | 84.8% |  |
| CC(=O)/C=C/[C@@]12O[C@@H](C[C@]1(C)O[C@@H]1O[C@H](CO)[C@@H](O)[C@H](O)[C@H]1O)[C@H](O)C2(C)C | Non-toxic |  |  |  |  | 98.5% |  |
| COc1cc(-c2oc3cc(OC)c(O)c(O)c3c(=O)c2OC)ccc1O [CHRYSOSPLENOL C] | Non-toxic | inactive | inactive | inactive |  |  |  |
